In brackets after ≈: the same amount, converted by molar mass. Several values for one entry are separate records, joined by “and”; a condition that tells them apart may be missing. Equal entries are not always repeated.
Columns and labels:
[1] = test system: Escherichia coli (NCIM 2065); experiment: Antibacterial susceptibility test, microbroth dilution MIC; format: cell-based; conditions: E. Coli (NCIM 2065); mean ± SD
MRSA (NCIM 5021) [2] = experiment: as above; format: cell-based, methicillin-resistant Staphylococcus aureus; conditions: mean ± SD
MRSA (ATCC43300) [3] = experiment: as above; format: cell-based, methicillin-resistant Staphylococcus aureus; conditions: mean ± SD
[4] = test system: Escherichia coli (NCIM 2065); experiment: Minimum bactericidal concentration (MBC); format: cell-based; conditions: E. Coli (NCIM 2065); for MBC/MIC: ratio ≤2 bactericidal, ≥4 tolerance
Procedure: (§1) MBC can be defined as the minimum concentration of a compound required to kill the bacteria over a fixed period under precise conditions. […] Colonies were counted, and colony forming unit (CFU) per milliliter was calculated.

MRSA (ATCC43300) [5] = experiment: Minimum bactericidal concentration (MBC); format: cell-based, methicillin-resistant Staphylococcus aureus
Procedure: as §1

MRSA (NCIM 5021) [6] = experiment: Minimum bactericidal concentration (MBC); format: cell-based, methicillin-resistant Staphylococcus aureus
Procedure: as §1

Vero cells [7] = test system: Vero cells
[8] = test system: Klebsiella pneumonia (NCIM 2706); parameters: method as in Yele et al., 2020, 2021; conditions: ref Yele et al., 2020, 2021; cited from earlier work
[9] = test system: Pseudomonas aeruginosa (NCIM 2036); parameters: method as in Yele et al., 2020, 2021; conditions: ref Yele et al., 2020, 2021; cited from earlier work
[10] = test system: Escherichia coli (NCIM 2567); parameters: method as in Yele et al., 2020, 2021; conditions: ref Yele et al., 2020, 2021; cited from earlier work
[11] = test system: Staphylococcus epidermis (NCIM 2493); parameters: method as in Yele et al., 2020, 2021; conditions: ref Yele et al., 2020, 2021; cited from earlier work
[12] = test system: Staphylococcus aureus (NCIM 5022); parameters: method as in Yele et al., 2020, 2021; conditions: ref Yele et al., 2020, 2021; cited from earlier work
[13] = test system: Bacillus subtilis (NCIM 2545); parameters: method as in Yele et al., 2020, 2021; conditions: ref Yele et al., 2020, 2021; cited from earlier work
[14] = test system: Mycobacterium tuberculosis (NCIM 2984); parameters: method as in Yele et al., 2020, 2021; conditions: ref Yele et al., 2020, 2021; cited from earlier work
Vero cells [15] = experiment: In vitro cytotoxicity MTT assay; conditions: CC50 Vero cells / IC50
E. coli [16] = experiment: Checkerboard synergy with FDA approved drugs; format: cell-based, Escherichia coli
E. coli [17] = experiment: Post antibiotic effect (PAE); format: cell-based, Escherichia coli; conditions: for Time for 1 log10: untreated control 2 h
E. coli ParE enzyme = molecular target: T1, E. coli ParE enzyme (Escherichia coli, UniProt P20083); experiment: E. coli ParE ATPase enzyme inhibition assay (ProFoldin kit, malachite green); format: biochemical; conditions: ATPase activity, mean ± SD (n = 3)
T1 construct: purchased ProFoldin, Hudson, United States
Procedure: The assay was performed as per the standard protocol provided by the ProFoldin. […] ParE hydrolyzes ATP as the source of molecular energy to perform decatenation reactions. Fluoroquinolones and aminocoumarins usually block ATPase activity to hinder the biological activities of topoisomerase II. Thus, the topoisomerase ATPase assay can be used for high-throughput screening of topoisomerase inhibitors. The ATPase activity of the E. coli ParE enzyme was based on the detection of inorganic phosphate produced by the hydrolysis of ATP in the presence of DNA. The phosphate is detected using a microplate reader at an absorbance wavelength of 650 nm. The selected compounds were tested for the inhibition of ATPase activity of ParE enzyme. […] The reaction mixture was incubated for 1 h at 37°C and then quenched with 45 μL of Dye. Incubate for 5 min, and the absorbance was measured at 650 nm. The IC50 values were determined from the absorbance readings using no enzyme and no compound controls. They were calculated using the non-linear regression curve fit method.

T1 sequence (P20083 whole entry): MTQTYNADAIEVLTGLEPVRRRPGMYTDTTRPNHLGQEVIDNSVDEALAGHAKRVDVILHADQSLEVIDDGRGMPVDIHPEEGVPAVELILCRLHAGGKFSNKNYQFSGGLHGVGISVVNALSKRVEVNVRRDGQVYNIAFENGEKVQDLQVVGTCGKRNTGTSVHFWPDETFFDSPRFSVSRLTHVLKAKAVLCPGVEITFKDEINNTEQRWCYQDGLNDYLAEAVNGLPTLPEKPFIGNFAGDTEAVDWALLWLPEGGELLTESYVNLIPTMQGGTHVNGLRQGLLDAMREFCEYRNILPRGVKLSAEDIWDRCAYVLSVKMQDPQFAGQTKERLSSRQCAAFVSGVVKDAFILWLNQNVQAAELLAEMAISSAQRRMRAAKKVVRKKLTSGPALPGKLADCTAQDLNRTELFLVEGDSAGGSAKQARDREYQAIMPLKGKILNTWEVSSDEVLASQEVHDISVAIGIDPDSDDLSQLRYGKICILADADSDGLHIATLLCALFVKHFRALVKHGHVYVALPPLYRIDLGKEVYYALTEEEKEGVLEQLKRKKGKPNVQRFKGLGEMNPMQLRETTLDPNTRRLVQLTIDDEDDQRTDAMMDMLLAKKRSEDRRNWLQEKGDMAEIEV
T1 sequence (P0AFI2 whole entry, further chain): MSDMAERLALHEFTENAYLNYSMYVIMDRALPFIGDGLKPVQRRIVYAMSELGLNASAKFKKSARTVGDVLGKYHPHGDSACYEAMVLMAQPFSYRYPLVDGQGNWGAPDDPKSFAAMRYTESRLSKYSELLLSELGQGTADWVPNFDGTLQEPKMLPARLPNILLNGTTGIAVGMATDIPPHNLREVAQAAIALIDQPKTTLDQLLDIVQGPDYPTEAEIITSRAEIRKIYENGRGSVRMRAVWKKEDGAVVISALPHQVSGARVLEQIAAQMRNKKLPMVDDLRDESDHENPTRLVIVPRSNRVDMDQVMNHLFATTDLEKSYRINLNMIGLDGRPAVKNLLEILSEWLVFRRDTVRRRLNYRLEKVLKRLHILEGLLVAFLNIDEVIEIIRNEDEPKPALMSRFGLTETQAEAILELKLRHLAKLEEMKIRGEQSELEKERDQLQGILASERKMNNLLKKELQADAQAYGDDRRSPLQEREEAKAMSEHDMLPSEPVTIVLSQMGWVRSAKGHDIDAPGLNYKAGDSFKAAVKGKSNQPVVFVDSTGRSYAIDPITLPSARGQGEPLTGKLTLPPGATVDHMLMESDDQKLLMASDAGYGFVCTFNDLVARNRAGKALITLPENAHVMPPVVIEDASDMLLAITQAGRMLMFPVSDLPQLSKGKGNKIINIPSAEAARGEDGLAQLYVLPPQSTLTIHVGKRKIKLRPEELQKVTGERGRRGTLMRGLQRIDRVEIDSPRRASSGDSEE

| Structure (SMILES) | Minimum inhibitory concentration [1] | Minimum inhibitory concentration (MRSA (NCIM 5021) [2]) [µg/mL] | Minimum inhibitory concentration (MRSA (ATCC43300) [3]) [µg/mL] | MBC [4] [µg/mL] | MBC/MIC [4] | MBC (MRSA (ATCC43300) [5]) [µg/mL] | MBC/MIC (MRSA (ATCC43300) [5]) | MBC (MRSA (NCIM 5021) [6]) [µg/mL] | MBC/MIC (MRSA (NCIM 5021) [6]) | CC50 (Vero cells [7]) [µg/mL] | Minimum inhibitory concentration (MIC) K. p [8] | Minimum inhibitory concentration (MIC) P. a [9] | Minimum inhibitory concentration (MIC) E. c [10] | Minimum inhibitory concentration (MIC) S. e [11] | Minimum inhibitory concentration (MIC) S. a [12] | Minimum inhibitory concentration (MIC) B. s [13] | Minimum inhibitory concentration (MIC) M. t [14] | SI (CC50/IC50) (Vero cells [15]) | IC50 against E. coli ParE enzyme (E. coli ParE enzyme) [µg/mL] | other results |
| --- | --- | --- | --- | --- | --- | --- | --- | --- | --- | --- | --- | --- | --- | --- | --- | --- | --- | --- | --- | --- |
| O=C(CSc1nc2ccccc2s1)Nc1ccc([N+](=O)[O-])cc1 [Compound 24] | 0.78 µg/mL and 0.78 ± 0.08 µg/mL | 0.81 ± 0.10 (≈ 2.35 µM) | 0.73 ± 0.12 (≈ 2.11 µM) | 0.78 ± 0.08 (≈ 2.26 µM) | 1 | 0.73 ± 0.12 (≈ 2.11 µM) | 1 | 0.81 ± 0.10 (≈ 2.35 µM) | 1 | 168.8089 (≈ 489 µM) | 2.24 | 15.0 | 2.17 | 1.98 | 0.78 | 1.97 | 2.52 | 351.6852 |  |  |
| CNC(C)C1CCC(N)C(OC2C(N)CC(N)C(OC3OCC(C)(O)C(NC)C3O)C2O)O1 (stereo not shown) [Gentamicin] |  |  |  |  |  |  |  |  |  |  |  |  |  |  |  |  |  |  |  | FIC A (E. coli [16]; FIC of compound 5 in combination): 0.1453; FIC A (E. coli [16]; FIC of compound 21 in combination with the row's drug): 0.1907; FIC B (E. coli [16]; FIC of the drug in combination with compound 5): 0.1254; FIC B (E. coli [16]; FIC of the drug in combination with compound 21): 0.1510; Inference (E. coli [16]; drug combined with compound 5): Synergistic (synergistic when the ΣFICs is ≤ 0.5); Inference (E. coli [16]; drug combined with compound 21): Synergistic (synergistic when the ΣFICs is ≤ 0.5); ΣFIC A + FIC B (E. coli [16]; drug combined with compound 21): 0.3417; PAE = T - C (E. coli [17]; 1 × mic): 0 h; Time for 1 log10 (E. coli [17]; 1 × mic): 2 h; PAE = T - C (E. coli [17]; 10 × mic): 1 h; Time for 1 log10 (E. coli [17]; 10 × mic): 3 h |
| Cc1cccc([N+](=O)[O-])c1NC(=O)COc1ccccc1NC(=O)CCl [Compound 4] | 2.49 ± 0.31 µg/mL (≈ 6.59 µM) | 2.69 ± 0.49 (≈ 7.12 µM) | 2.52 ± 0.37 (≈ 6.67 µM) | 4.71 ± 0.03 (≈ 12.5 µM) | 2 | 8.76 ± 0.21 (≈ 23.2 µM) | 3 | 8.00 ± 0.04 (≈ 21.2 µM) | 3 | 163.9911 (≈ 434 µM) | 11.90 | 19.90 | 4.45 | 2.05 | 4.12 | 5.97 | 0.75 | 169.0629 | 0.95 (≈ 2.51 µM) |  |
| O=C(CCl)Nc1ccccc1OCC(=O)Nc1ccc([N+](=O)[O-])cc1[N+](=O)[O-] [Compound 7] | 0.83 ± 0.05 µg/mL (≈ 2.03 µM) | 0.95 ± 0.06 (≈ 2.32 µM) | 0.85 ± 0.09 (≈ 2.08 µM) | 0.83 ± 0.1 (≈ 2.03 µM) | 1 | 0.85 ± 0.09 (≈ 2.08 µM) | 1 | 0.95 ± 0.06 (≈ 2.32 µM) | 1 | 224.7306 (≈ 550 µM) | 1.25 | 0.67 | 1.52 | 8.62 | 5.78 | 6.56 | 1.02 | 236.5585 | 0.95 ± 0.06 (≈ 2.32 µM) |  |
| COc1ccc(OCC(=O)Nc2ccc(C(=O)O)cc2)cc1 [Compound 27] | 1.59 ± 0.38 µg/mL (≈ 5.28 µM) | 1.71 ± 0.24 (≈ 5.68 µM) | 1.06 ± 0.14 (≈ 3.52 µM) | 1.59 ± 0.38 (≈ 5.28 µM) | 1 | 1.06 ± 0.14 (≈ 3.52 µM) | 1 | 3.55 ± 0.07 (≈ 11.8 µM) | 2 |  | 1.40 | 2.21 | 0.98 | 0.94 | 0.94 | 3.06 | 0.79 |  | 1.30 (≈ 4.31 µM) |  |
| O=C(COc1ccccc1NC(=O)CCl)NNC(=O)c1ccc([N+](=O)[O-])cc1 [Compound 14] | 4.14 ± 0.07 µg/mL (≈ 10.2 µM) | 4.35 ± 0.09 (≈ 10.7 µM) | 0.94 ± 0.14 (≈ 2.31 µM) |  | 1 | 0.94 ± 0.14 (≈ 2.31 µM) | 1 |  |  | 64.7605 (≈ 159 µM) | 0.98 | 1.98 | 0.80 | 5.61 | 8.56 | 5.70 | 2.56 | 179.8902 | 0.36 ± 0.03 (≈ 0.885 µM) |  |
| O=C(CNc1nc2ccccc2s1)Nc1ccccc1 [Compound 26] | 2.64 ± 0.31 µg/mL (≈ 9.32 µM) | 2.77 ± 0.21 (≈ 9.78 µM) | 2.78 ± 0.20 (≈ 9.81 µM) | 0.72 ± 0.05 (≈ 2.54 µM) | 1 | 4.32 ± 0.10 (≈ 15.2 µM) | 4 | 0.86 ± 0.13 (≈ 3.04 µM) | 1 |  | 1.31 | 1.22 | 1.05 | 8.14 | 0.98 | 3.65 | 10.1 |  | 1.54 (≈ 5.43 µM) |  |
| O=C(CSc1nc2ccccc2s1)Nc1ccccc1 [Compound 23] | 0.95 ± 0.05 µg/mL (≈ 3.16 µM) | 0.94 ± 0.04 (≈ 3.13 µM) | 0.75 ± 0.11 (≈ 2.5 µM) | 0.95 ± 0.05 (≈ 3.16 µM) | 1 | 0.75 ± 0.11 (≈ 2.5 µM) | 1 | 0.94 ± 0.04 (≈ 3.13 µM) | 1 |  | 1.62 | 1.88 | 2.11 | 1.51 | 1.84 | 1.27 | 1.74 |  | 1.76 (≈ 5.86 µM) |  |
| O=C(COc1ccccc1NC(=O)CCl)NNc1ccc([N+](=O)[O-])cc1[N+](=O)[O-] [Compound 17] | 3.41 ± 0.25 µg/mL (≈ 8.05 µM) | 3.71 ± 0.15 (≈ 8.75 µM) | 3.23 ± 0.21 (≈ 7.62 µM) | 7.2 ± 0.7 (≈ 17 µM) | 2 |  |  | 7.46 ± 0.05 (≈ 17.6 µM) | 2 | 150.8056 (≈ 356 µM) | 1.26 | 0.98 | 1.25 | 3.56 | 2.38 | 4.89 | 0.98 | 175.3553 | 0.86 ± 0.12 (≈ 2.03 µM) |  |
